Data reported in patent US6824990B1, “Methods of detecting and modulating oligomerization of G protein-coupled receptors” (priority 1999, dated 2004).

Experiments:
[1] = target: T1, Ste2Δtail-CFP and Ste2Δtail-YFP (Saccharomyces cerevisiae, UniProt D6VTK4); experiment: FRET between CFP- and YFP-tagged tailless α-factor receptors in intact yeast cells; assay type: cell-based, S. cerevisiae
T1 construct: CFP and YFP were joined 8 amino acids (position 304) beyond transmembrane domain VII of the α-factor receptor; expressed in transfected cells; host or cells: S. cerevisiae KBY58 (ste2Δ), single copy plasmids, STE2 promoter
Method: (§1) Yeast cells expressed tailless α-factor receptors fused to CFP or YFP (Ste2-CFP or -YFP) and/or glucose transporters fused to YFP (Hxt1-YFP), as indicated. Untagged α-factor receptors (Ste2) or glucose transporters (Hxt1) were overexpressed where indicated. Intact cells (panels a-g) or plasma membrane fractions (panels h-i) were excited at the λmax of CFP (440 nm) and fluorescence emission was detected by scanning fluorometry. Fluorescence emission due to FRET (FRET) was determined as: (emission spectrum of cells co-expressing CFP and YFP fusion proteins)—(emission spectrum of cells expressing CFP fusion alone)—(emission spectrum of cells expressing YFP fusion alone). The efficiency of FRET (panel e) was determined as: (integrated FRET curve)/(integrated emission curve obtained upon direct excitation of YFP at 490 nm). In panels f, g and i, only the FRET emission curves are shown for experiments performed under the indicated conditions. The results shown in each panel are representative of at least 6 independent experiments, with equivalent results.
(§2) CFP and YFP were joined 8 amino acids (position 304) beyond transmembrane domain VII of the α-factor receptor (STE2 gene product) and at the immediate C-terminus of a glucose transporter (HXT1 gene product). These fusion proteins were expressed from the STE2 promoter on single copy plasmids with different selectable markers, allowing them to be co-expressed at similar levels as shown by quantitation of CFP and YFP fluorescence. Ste2Δtail-CFP and -YFP fusions had normal agonist binding affinities (1-2 nM) and cell surface expression (6-8,000 receptors/cell), as determined by radioligand binding assays. […] Yeast cells (KBY58, a ste2Δ mutant) expressing CFP and/or YFP fusion proteins were grown at 30° C. in selective media to a density of 10^7 cells/ml, washed, suspended in 50 mM PIPES, pH 6.0 and analyzed by scanning fluorometry. […] Cells (10^7 cells in 3 ml) or membranes (20 μg protein in 3 ml) were irradiated at 440 nm to excite CFP and fluorescence emission was recorded from 460-610 nm. […]

[2] = target: T1, Ste2Δtail-CFP and Ste2Δtail-YFP; experiment: FRET in purified plasma membrane fractions; assay type: biochemical, S. cerevisiae
Method: as §1, with “The results shown in each panel are representative of at least 6 independent experiments, with equivalent results.” left out
CFP and YFP were joined 8 amino acids (position 304) beyond transmembrane domain VII of the α-factor receptor (STE2 gene product) and at the immediate C-terminus of a glucose transporter (HXT1 gene product). These fusion proteins were expressed from the STE2 promoter on single copy plasmids with different selectable markers, allowing them to be co-expressed at similar levels as shown by quantitation of CFP and YFP fluorescence. […]

[3] = tested on: Ste2Δtail-CFP and Ste2Δtail-YFP; experiment: FRET between CFP- and YFP-tagged tailless α-factor receptors in intact yeast cells; assay type: cell-based, S. cerevisiae; details: cells treated with latrunculin B
Method: as §1, §2

T1 sequence (D6VTK4 1-304, stated change not applied): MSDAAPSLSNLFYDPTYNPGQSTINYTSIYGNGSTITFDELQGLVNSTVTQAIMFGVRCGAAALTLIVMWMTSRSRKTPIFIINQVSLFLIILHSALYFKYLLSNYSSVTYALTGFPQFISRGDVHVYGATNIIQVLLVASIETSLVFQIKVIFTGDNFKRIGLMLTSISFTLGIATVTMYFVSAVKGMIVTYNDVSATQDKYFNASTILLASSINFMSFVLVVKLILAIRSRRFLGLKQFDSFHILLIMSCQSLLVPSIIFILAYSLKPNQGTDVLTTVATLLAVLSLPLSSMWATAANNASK

Compound: desTrp1,Ala3,Nle12-α-factor
- effect on efficiency of FRET ([1]; given transformant, 1 nM-5 μM, 1-20 min after addition): no effect
- apparent efficiency of FRET ([1]; treated cells, sub-saturating to saturating ligand concentrations, indistinguishable from control cells, n=6): 18%±1

Compound: Nc1nc2c(ncn2[C@@H]2O[C@H](COP(=O)(O)OP(=O)(O)OP(O)(O)=S)[C@@H](O)[C@H]2O)c(=O)[nH]1 [GTP-γS]
- apparent efficiency of FRET ([2]; 5 μM agonist and 50 μM GTP-γS (activated and uncoupled), indistinguishable from inactive, n=11): 20%±2%
- effect on efficiency of FRET ([2]; given membrane preparation, GTP-γS 50 μM): no effect

Compound: C/C1=C/C(=O)O[C@@H]2C[C@@H](CC[C@H](C)/C=C\CC1)O[C@@](O)([C@@H]1CSC(=O)N1)C2 [latrunculin B]
- FRET when the actin cytoskeleton was disassembled [3]: FRET was detected
